Test results as given in patent publication US20240327412A1, “FACTOR XIIA INHIBITORS” (KALVISTA PHARMACEUTICALS LIMITED, priority 2021, published 2024).

Molecular target: T1, Human Factor XIIa (Homo sapiens, UniProt P00748)
T1 construct: Proteolytic cleavage of FXII to heavy and light chains of FXIIa dramatically increases catalytic activity; purchased Enzyme Research Laboratories
T1 sequence (P00748 373-615 limits assumed): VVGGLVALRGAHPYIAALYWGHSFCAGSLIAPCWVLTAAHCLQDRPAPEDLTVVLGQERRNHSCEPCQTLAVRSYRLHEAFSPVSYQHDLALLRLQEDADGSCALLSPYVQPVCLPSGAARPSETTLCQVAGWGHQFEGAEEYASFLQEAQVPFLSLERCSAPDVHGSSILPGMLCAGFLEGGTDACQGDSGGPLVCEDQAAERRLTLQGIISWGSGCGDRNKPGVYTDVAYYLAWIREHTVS
T1 sequence (P00748 20-372 partner limits assumed): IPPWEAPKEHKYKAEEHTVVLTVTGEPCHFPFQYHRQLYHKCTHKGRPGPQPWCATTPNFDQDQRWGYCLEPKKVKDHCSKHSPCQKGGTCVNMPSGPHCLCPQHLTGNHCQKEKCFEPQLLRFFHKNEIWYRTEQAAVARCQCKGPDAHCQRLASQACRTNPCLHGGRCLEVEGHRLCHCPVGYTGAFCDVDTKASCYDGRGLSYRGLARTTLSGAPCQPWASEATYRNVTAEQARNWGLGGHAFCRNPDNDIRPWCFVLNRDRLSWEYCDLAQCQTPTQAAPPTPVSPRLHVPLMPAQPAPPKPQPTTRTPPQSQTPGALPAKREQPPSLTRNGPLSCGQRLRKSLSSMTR
Assay: Determination of FXIIa inhibition (fluorogenic substrate H-DPro-Phe-Arg-AFC, IC50 assay)
Assay type: biochemical
Details: substrate at Km concentration, 25° C.; category scale; read-out: Human FXII IC50 (nm)
Method in brief: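 At substrate Km and 25° C., the rate of AFC release from H-DPro-Phe-Arg-AFC by human Factor XIIa was followed for 5 min across compound concentrations. Inhibition was derived as percent of uninhibited rate, giving IC50.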

IC50 [nM] | Structure (SMILES)
300 to 1000 | Cn1ccc(OCC23CC(CNc4cccc5c(N)nccc45)(CN2C(=O)CCc2ccccc2Cl)C3)cc1=O [Example 13017, 4-((4-(((1-aminoisoquinolin-5-yl)amino)methyl)-2-(3-(2-chlorophenyl)propanoyl)-2-azabicyclo[2.1.1]hexan-1-yl)methoxy)-1-methylpyridin-2(1H)-one]
100 to 300 | Nc1nccc2c(NCC34CC(COc5ccn6c(C(F)(F)F)cnc6c5)(CCO3)C4)cccc12 [Example 10932, N5-((5-(((3-(trifluoromethyl)imidazo[1,2-a]pyridin-7-yl)oxy)methyl)-2-oxabicyclo[3.1.1]heptan-1-yl)methyl)isoquinoline-1,5-diamine]
300 to 1000 | Nc1nccc2c(NCC34CC(COc5ccc6c(c5)CCNC6=O)(CCO3)C4)cccc12 [Example 10938, 6-((1-(((1-aminoisoquinolin-5-yl)amino)methyl)-2-oxabicyclo[3.1.1]heptan-5-yl)methoxy)-3,4-dihydroisoquinolin-1(2H)-one]
10 to 100 | Cn1ccc(OCC23CN(C(=O)NCc4cccc(C(F)(F)F)c4)C(CNc4cccc5c(N)nccc45)(C2)C3)cc1=O [Example 12069, 1-(((1-aminoisoquinolin-5-yl)amino)methyl)-4-(((1-methyl-2-oxo-1,2-dihydropyridin-4-yl)oxy)methyl)-N-(3-(trifluoromethyl)benzyl)-2-azabicyclo[2.1.1]hexane-2-carboxamide]
300 to 1000 | Nc1nccc2c(NCC34CC(COc5ccn6cnnc6c5)(C3)C4)cccc12 [Example 1135, N5-((3-(([1,2,4]triazolo[4,3-a]pyridin-7-yloxy)methyl)bicyclo[1.1.1]pentan-1-yl)methyl)isoquinoline-1,5-diamine]
10 to 100 | Cn1ccc(OCC23CC(CNc4cccc5c(N)nccc45)(CN2C(=O)NCc2ccccc2)C3)cc1=O [Example 13012, 4-(((1-aminoisoquinolin-5-yl)amino)methyl)-N-benzyl-1-(((1-methyl-2-oxo-1,2-dihydropyridin-4-yl)oxy)methyl)-2-azabicyclo[2.1.1]hexane-2-carboxamide]
10000 to 40000 | Nc1nccc2c(NCC34CC(COc5cnccn5)(CCO3)C4)cccc12 [Example 10976, N5-((5-((pyrazin-2-yloxy)methyl)-2-oxabicyclo[3.1.1]heptan-1-yl)methyl)isoquinoline-1,5-diamine]
300 to 1000 | Cn1ccc(OCC23CC(CNc4cccc5c(N)nccc45)(CN2C(=O)Cc2ccccc2)C3)cc1=O [Example 13021, 4-((4-(((1-aminoisoquinolin-5-yl)amino)methyl)-2-(2-phenylacetyl)-2-azabicyclo[2.1.1]hexan-1-yl)methoxy)-1-methylpyridin-2(1H)-one]
1000 to 3000 | Cc1cn(C)c(=O)nc1OCC12CCOC(CNc3cccc4c(N)nccc34)(C1)C2 [Example 10962, 4-((1-(((1-aminoisoquinolin-5-yl)amino)methyl)-2-oxabicyclo[3.1.1]heptan-5-yl)methoxy)-1,5-dimethylpyrimidin-2(1H)-one]
300 to 1000 | Cn1ccc(OCC23CC(CNc4cccc5c(N)nccc45)(CN2C(=O)Nc2ccccc2)C3)cc1=O [Example 13019, 4-(((1-aminoisoquinolin-5-yl)amino)methyl)-1-(((1-methyl-2-oxo-1,2-dihydropyridin-4-yl)oxy)methyl)-N-phenyl-2-azabicyclo[2.1.1]hexane-2-carboxamide]
1 to 10 | Cn1ccc(OCC23CN(C(=O)Nc4ccccc4F)C(CNc4cccc5c(N)nccc45)(C2)C3)cc1=O [Example 12068, 1-(((1-aminoisoquinolin-5-yl)amino)methyl)-N-(2-fluorophenyl)-4-(((1-methyl-2-oxo-1,2-dihydropyridin-4-yl)oxy)methyl)-2-azabicyclo[2.1.1]hexane-2-carboxamide]
10 to 100 | Cn1ccc(OCC23CN(C(=O)CCc4cccc(C#N)c4)C(CNc4cccc5c(N)nccc45)(C2)C3)cc1=O [Example 12044, 3-(3-(1-(((1-aminoisoquinolin-5-yl)amino)methyl)-4-(((1-methyl-2-oxo-1,2-dihydropyridin-4-yl)oxy)methyl)-2-azabicyclo[2.1.1]hexan-2-yl)-3-oxopropyl)benzonitrile]
100 to 300 | Cn1ccc(OCC23CN(C(=O)OCc4ccc(F)c(F)c4)C(CNc4cccc5c(N)nccc45)(C2)C3)cc1=O [Example 12020, 3,4-difluorobenzyl 1-(((1-aminoisoquinolin-5-yl)amino)methyl)-4-(((1-methyl-2-oxo-1,2-dihydropyridin-4-yl)oxy)methyl)-2-azabicyclo[2.1.1]hexane-2-carboxylate]
100 to 300 | COc1cc(OCC23COC(CNc4cccc5c(N)nccc45)(C2)C3)cn2ccnc12 [Example 6631, N5-((4-(((8-methoxyimidazo[1,2-a]pyridin-6-yl)oxy)methyl)-2-oxabicyclo[2.1.1]hexan-1-yl)methyl)isoquinoline-1,5-diamine]
3000 to 10000 | Cn1c(OCC23CCOC(CNc4cccc5c(N)nccc45)(C2)C3)cccc1=O [Example 10945, 6-((1-(((1-aminoisoquinolin-5-yl)amino)methyl)-2-oxabicyclo[3.1.1]heptan-5-yl)methoxy)-1-methylpyridin-2(1H)-one]
300 to 1000 | Nc1nccc2c(NCC34CC(COc5cccc(N6CCCC6=O)c5)(CO3)C4)cccc12 [Example 6653, 1-(3-((1-(((1-aminoisoquinolin-5-yl)amino)methyl)-2-oxabicyclo[2.1.1]hexan-4-yl)methoxy)phenyl)pyrrolidin-2-one]
10 to 100 | COc1ccc(C(=O)N2CC3(COc4ccn(C)c(=O)c4)CC2(CNc2cccc4c(N)nccc24)C3)cc1 [Example 12071, 4-((1-(((1-aminoisoquinolin-5-yl)amino)methyl)-2-(4-methoxybenzoyl)-2-azabicyclo[2.1.1]hexan-4-yl)methoxy)-1-methylpyridin-2(1H)-one]
300 to 1000 | CC1(C)OC2(COc3cccc4c(N)nccc34)CC1(COc1ccn3ccnc3c1)C2 [Example 7702, 5-((4-((imidazo[1,2-a]pyridin-7-yloxy)methyl)-3,3-dimethyl-2-oxabicyclo[2.1.1]hexan-1-yl)methoxy)isoquinolin-1-amine]
40000 to 100000 | Nc1nccc2c(NCC34CC(Cn5ccnc5)(CO3)C4)cccc12 [Example 6646, N5-((4-((1H-imidazol-1-yl)methyl)-2-oxabicyclo[2.1.1]hexan-1-yl)methyl)isoquinoline-1,5-diamine]
10 to 100 | Cn1ccc(OCC23CC(CNc4cccc5c(N)nccc45)(CN2C(=O)Oc2ccccc2)C3)cc1=O [Example 13006, phenyl 4-(((1-aminoisoquinolin-5-yl)amino)methyl)-1-(((1-methyl-2-oxo-1,2-dihydropyridin-4-yl)oxy)methyl)-2-azabicyclo[2.1.1]hexane-2-carboxylate]
100 to 300 | Cn1ccc(OCC23CC(CNc4cccc5c(N)nccc45)(CN2S(=O)(=O)CCc2ccccc2)C3)cc1=O [Example 13014, 4-((4-(((1-aminoisoquinolin-5-yl)amino)methyl)-2-(phenethylsulfonyl)-2-azabicyclo[2.1.1]hexan-1-yl)methoxy)-1-methylpyridin-2(1H)-one]
10000 to 40000 | Nc1nccc2c(NCC34CC(Cn5cccn5)(CO3)C4)cccc12 [Example 6645, N5-((4-((1H-pyrazol-1-yl)methyl)-2-oxabicyclo[2.1.1]hexan-1-yl)methyl)isoquinoline-1,5-diamine]
